In US20160362408A1 (Bayer Pharma Aktiengesellschaft, priority 2013, published 2016):
Where a name gives a salt, the structure may show the parent alone.

These compounds were tested against T1, recombinant guanylate cyclase reporter cell line (Rattus norvegicus, UniProt P19686+P20595) (assay: Effect on a recombinant guanylate cyclase reporter cell line). Settings: MEC = minimum effective concentration; in some cases mean values for individual determinations.
T1 construct: expressed in transfected cells
T1 sequence (P19686 1-690): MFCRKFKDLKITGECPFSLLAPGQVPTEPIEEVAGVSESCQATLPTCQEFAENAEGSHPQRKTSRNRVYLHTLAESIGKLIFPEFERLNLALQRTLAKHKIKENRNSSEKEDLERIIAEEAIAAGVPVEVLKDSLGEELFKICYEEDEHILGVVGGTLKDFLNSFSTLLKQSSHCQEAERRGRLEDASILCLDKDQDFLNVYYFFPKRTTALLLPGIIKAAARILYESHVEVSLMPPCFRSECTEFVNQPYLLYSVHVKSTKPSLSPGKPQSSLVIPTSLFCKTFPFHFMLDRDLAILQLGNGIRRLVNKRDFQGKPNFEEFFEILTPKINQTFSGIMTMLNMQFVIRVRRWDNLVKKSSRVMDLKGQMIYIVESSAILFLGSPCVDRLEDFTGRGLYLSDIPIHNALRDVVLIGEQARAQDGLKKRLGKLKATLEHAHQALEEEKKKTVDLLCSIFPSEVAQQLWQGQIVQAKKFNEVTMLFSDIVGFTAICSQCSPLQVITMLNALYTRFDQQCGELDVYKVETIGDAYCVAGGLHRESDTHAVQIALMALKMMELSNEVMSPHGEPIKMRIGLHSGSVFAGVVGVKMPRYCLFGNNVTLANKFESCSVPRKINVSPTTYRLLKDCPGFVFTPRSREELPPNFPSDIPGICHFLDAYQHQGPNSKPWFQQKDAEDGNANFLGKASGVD
T1 sequence (P20595 1-619): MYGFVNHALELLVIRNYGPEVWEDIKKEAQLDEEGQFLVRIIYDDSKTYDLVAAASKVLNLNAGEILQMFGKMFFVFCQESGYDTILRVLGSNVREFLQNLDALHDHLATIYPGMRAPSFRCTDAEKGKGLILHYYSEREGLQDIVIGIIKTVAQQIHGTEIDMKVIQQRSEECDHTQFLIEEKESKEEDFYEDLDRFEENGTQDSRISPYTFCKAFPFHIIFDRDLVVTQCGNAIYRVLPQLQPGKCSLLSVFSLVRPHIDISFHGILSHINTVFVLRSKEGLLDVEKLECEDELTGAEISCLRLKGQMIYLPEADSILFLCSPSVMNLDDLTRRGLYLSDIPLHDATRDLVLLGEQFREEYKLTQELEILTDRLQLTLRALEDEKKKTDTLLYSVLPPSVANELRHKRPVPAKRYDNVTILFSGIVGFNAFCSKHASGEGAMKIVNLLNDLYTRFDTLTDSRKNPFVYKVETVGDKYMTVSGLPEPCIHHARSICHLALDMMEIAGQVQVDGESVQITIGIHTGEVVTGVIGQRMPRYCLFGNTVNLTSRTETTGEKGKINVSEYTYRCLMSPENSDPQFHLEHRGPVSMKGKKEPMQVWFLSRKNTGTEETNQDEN
Format: cell-based
Method in brief: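 Compounds tested in a recombinant guanylate cyclase reporter cell line per a published method. Potency expressed as minimum effective concentration (MEC), sometimes as mean of individual determinations.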

| MEC [µM] | SMILES |
| --- | --- |
| 1.0 | Cc1nc2c(OCc3c(F)cccc3F)cccn2c1C(=O)Nc1n[nH]c2ccc(F)cc12 [Example 115, 8-[(2,6-Difluorobenzyl)oxy]-N-(5-fluoro-1H-indazol-3-yl)-2-methylimidazo[1,2-a]pyridine-3-carboxamide] |
| 0.5 | Cc1nc2c(OCc3c(F)cccc3F)cccn2c1C(=O)Nc1c(C(F)(F)F)nn(CCO)c1C [Example 116, 8-[(2,6-Difluorobenzyl)oxy]-N-[1-(2-hydroxyethyl)-5-methyl-3-(trifluoromethyl)-1H-pyrazol-4-yl]-2-methylimidazo[1,2-a]pyridine-3-carboxamide] |
| 0.1 | Cc1nc2c(OCc3c(F)cccc3F)cc(Cl)cn2c1C(=O)Nc1c(C(F)(F)F)nn(CCO)c1C [Example 117, 6-chloro-8-[(2,6-difluorobenzyl)oxy]-N-[1-(2-hydroxyethyl)-5-methyl-3-(trifluoromethyl)-1H-pyrazol-4-yl]-2-methylimidazo[1,2-a]pyridine-3-carboxamide] |
| 1.0 | Cc1nc2c(OCc3c(F)cccc3F)cccn2c1C(=O)Nc1cnn(C)c1 [Example 119, 8-[(2,6-difluorobenzyl)oxy]-2-methyl-N-(1-methyl-1H-pyrazol-4-yl)imidazo[1,2-a]pyridine-3-carboxamide] |
| 1.0 | CCn1ccc(NC(=O)c2c(C)nc3c(OCc4c(F)cccc4F)cccn23)n1 [Example 121, 8-[(2,6-difluorobenzyl)oxy]-N-(1-ethyl-1H-pyrazol-3-yl)-2-methylimidazo[1,2-a] pyridine-3-carboxamide] |
| 3.0 | Cc1nc2c(OCc3c(F)cccc3F)cccn2c1C(=O)Nc1cc(C)n(C)n1 [Example 122, 8-[(2,6-difluorobenzyl)oxy]-N-(1,5-dimethyl-1H-pyrazol-3-yl)-2-methylimidazo[1,2-a] pyridine-3-carboxamide] |
| 1.0 | Cc1nc2c(OCc3c(F)cccc3F)cccn2c1C(=O)Nc1ccncc1C(F)(F)F [Example 123, 8-[(2,6-difluorobenzyl)oxy]-2-methyl-N-[3-(trifluoromethyl)pyridin-4-yl)imidazo[1,2-a]pyridine-3-carboxamide trifluoroacetate] |
| 1.0 | Cc1nc2c(OCC3CCCCC3)cccn2c1C(=O)Nc1cnn(CCO)c1 [Example 124, 8-(cyclohexylmethoxy)-N-[1-(2-hydroxyethyl)-1H-pyrazol-4-yl]-2-methylimidazo[1,2-a]pyridine-3-carboxamide] |
| 1.0 | Cc1ccnc(NC(=O)c2c(C)nc3c(OCc4c(F)cccc4F)cccn23)n1 [Example 126, 8-[(2,6-Difluorobenzyl)oxy]-2-methyl-N-(4-methylpyrimidin-2-yl)imidazo[1,2-a]pyridine-3-carboxamide] |
| 1.0 | Cc1nc2c(OCc3c(F)cccc3F)cccn2c1C(=O)Nc1cnn(CCN2CCC(F)(F)CC2)c1 [Example 127, 8-[(2,6-Difluorobenzyl)oxy]-N-{1-[2-(4,4-difluoropiperidin-1-yl)ethyl]-1H-pyrazol-4-yl}-2-methylimidazo[1,2-a]pyridine-3-carboxamide] |
| 3.0 | Cc1nc2c(OCc3c(F)cccc3F)cccn2c1C(=O)Nc1cnn(CCN2CCCC2)c1 [Example 128, 8-[(2,6-difluorobenzyl)oxy]-2-methyl-N-{1-[2-(pyrrolidin-1-yl)ethyl]-1H-pyrazol-4-yl}imidazo [1,2-a]pyridine-3-carboxamide] |
| 10 | Cc1nc2c(OCc3c(F)cccc3F)cccn2c1C(=O)Nc1cnn(CCN2CCS(=O)(=O)CC2)c1 [Example 129, 8-[(2,6-difluorobenzyl)oxy]-N-{1-[2-(1,1-dioxidothiomorpholin-4-yl)ethyl]-1H-pyrazol-4-yl}-2-methylimidazo[1,2-a] pyridine-3-carboxamide] |
| 10 | Cc1nc2c(OCc3c(F)cccc3F)cccn2c1C(=O)Nc1cnn(CCN2CCC(O)CC2)c1 [Example 130, 8-[(2,6-difluorobenzyl)oxy]-N-{1-[2-(4-hydroxypiperidin-1-yl)ethyl]-1H-pyrazol-4-yl}-2-methylimidazol[1,2-a] pyridine-3-carboxamide] |
| 1.0 | Cc1nc2c(OCc3c(F)cccc3F)cccn2c1C(=O)Nc1cnn(CCN2CCOCC2)c1 [Example 132, 8-[(2,6-difluorobenzyl)oxy]-2-methyl-N-{1-[2-(morpholin-4-yl)ethyl]-1H-pyrazol-4-yl} imidazo[1,2-a]pyridine-3-carboxamide] |
| 10 | Cc1nc2c(OCc3c(F)cccc3F)cccn2c1C(=O)Nc1cnn(CCN2CCN(C)CC2)c1 [Example 133, 8-[(2,6-difluorobenzyl)oxy]-2-methyl-N-{1-[2-(4-methylpiperazin-1-yl)ethyl]-1H-pyrazol-4-yl)imidazo [1,2-a]pyridine-3-carboxamide] |
| 3.0 | Cc1nc2c(OCc3c(F)cccc3F)cccn2c1C(=O)Nc1cnn(CCN(C)C)c1 [Example 134, 8-[(2,6-difluorobenzyl)oxy]-N-{1-[2-(dimethylamino)ethyl]-1H-pyrazol-4-yl}-2-methylimidazol[1,2-a] pyridine-3-carboxamide] |
| 3.0 | Cc1nc2c(OCc3c(F)cccc3F)cccn2c1C(=O)Nc1cnn(CCS(C)(=O)=O)c1 [Example 135, 8-[(2,6-Difluorobenzyl)oxy]-2-methyl-N-{1-[2-(methylsulphonyl)ethyl]-1H-pyrazol-4-yl}imidazo[1,2-a]pyridine-3-carboxamide] |
| 10 | Cc1nc2c(OCc3c(F)cccc3F)cccn2c1C(=O)Nc1cnn(CCOC(N)=O)c1 [Example 138, 2-{4-[({8-[(2,6-Difluorobenzyl)oxy]-2-methylimidazo[1,2-a]pyridin-3-yl}carbonyl)amino]-1H-pyrazol-1-yl}ethyl carbamate] |
| 3.0 | Cc1nc2c(OCc3c(F)cccc3F)cccn2c1C(=O)Nc1cnn(CCOS(N)(=O)=O)c1 [Example 139, 2-{4-[({8-[(2,6-Difluorobenzyl)oxy]-2-methylimidazo[1,2-a]pyridin-3-yl}carbonyl)amino]-1H-pyrazol-1-yl}ethyl sulphamate trifluoroacetate] |
| 1.0 | Cc1nc2c(OCc3c(F)cccc3F)cccn2c1C(=O)Nc1cnn(CCF)c1 [Example 140, 8-[(2,6-Difluorobenzyl)oxy]-N-[1-(2-fluoroethyl)-1H-pyrazol-4-yl]-2-methylimidazo[1,2-a]pyridine-3-carboxamide] |
| 1.0 | Cc1nc2c(OCc3c(F)cccc3F)cc(Cl)cn2c1C(=O)Nc1cnn(CCF)c1 [Example 141, 6-chloro-8-[(2,6-difluorobenzyl)oxy]-N-[1-(2-fluoroethyl)-1H-pyrazol-4-yl]-2-methylimidazo[1,2-a]pyridine-3-carboxamide] |
| 10 | O=C(Nc1cnn(CCO)c1)c1c(C2CC2)nc2c(OCc3c(F)cccc3F)cccn12 [Example 142, 2-Cyclopropyl-8-[(2,6-difluorobenzyl)oxy]-N-[1-(2-hydroxyethyl)-1H-pyrazol-4-yl]imidazo[1,2-a]pyridine-3-carboxamide] |
| 0.3 | Cc1nc2c(OCc3c(F)cccc3F)cccn2c1C(=O)Nc1cc(F)cc(F)c1N [Example 143, N-(2-Amino-3,5-difluorophenyl)-8-[(2,6-difluorobenzyl)oxy]-2-methylimidazo[1,2-a]pyridine-3-carboxamide] |
| 3.0 | Cc1nc(NC(=O)c2c(C)nc3c(OCc4c(F)cccc4F)cccn23)oc1C [Example 144, 8-[(2,6-difluorobenzyl)oxy]-N-(4,5-dimethyl-1,3-oxazol-2-yl)-2-methylimidazo[1,2-a]pyridine-3-carboxamide] |
| 3.0 | Cc1nc2c(OCc3c(F)cccc3F)cccn2c1C(=O)Nc1nccs1 [Example 145, 8-[(2,6-difluorobenzyl)oxy]-2-methyl-N-(1,3-thiazol-2-yl) imidazo[1,2-a]pyridine-3-carboxamide] |
| 3.0 | Cc1cnc(NC(=O)c2c(C)nc3c(OCc4c(F)cccc4F)cccn23)s1 [Example 146, 8-[(2,6-difluorobenzyl)oxy]-2-methyl-N-(5-methyl-1,3-thiazol-2-yl)imidazo[1,2-a]pyridine-3-carboxamide] |
